Measured values taken from US20070166547A1, “Use of a layer consisting of hydrophobic linear, or two-dimensional polycyclic aromatics as a barrier layer or an encapsulation and electric components constructed with a layer of this type and comprising organic polymers” (priority 2003, published 2007).
Marks after values point to notes of the source that are not given here.

Legend:
[1] = Polarographic study of electrochemical reduction (electrochemical activity); format: physicochemical; conditions: for number of electrons participating in the reduction: calculated with the Geirovsky-Ilkovich equation; for i, mkA (polarographic wave current) / −E1/2, V (half-wave potential vs SCE): 37° C., forward trace, average for the group; for i, mkA (polarographic wave current): 9·10^−4 M; for half-wave potential more positive on reverse stroke than on forward stroke: reverse stroke vs forward stroke
Procedure, shortened: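 DC polarography at 37 °C on a dropping mercury electrode (0.5 s drop) against SCE with a Pt auxiliary electrode. Compounds at 9·10^−4 M in N2-purged 2.0% NaCl at pH 7.0–7.6, scanned 0 to −0.5 V at 10.0 mV/s. E1/2 and ilim were determined graphically; electron number was derived by Heyrovsky–Ilkovič analysis.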

plasma hemostasis = experiment: Thrombin time after intravenous administration; format: in vivo, rabbit
Protocol: The investigations were performed on 72 rabbits of the “Chinchilla” breed with a mass of 2.5±0.3 kg, who were administered which solutions of compounds 2, 15, 21, 37 in doses of 15, 30 and 60 mg/kg intravenously. The experiments included the thrombin-test (series No. 7300) and the coagulability-test (series No. 5000) purchased from the scientific-and-production association (SPA) “Renam”, thromboplastin (series No. 240600) and calcium chloride purchased from the SPA “MedioLab”
The static parameters of the blood and plasma coagulation (partial activated thromboplastin time, thrombin time, maximum coagulation activity (test for auto coagulation) were determined using the Behnk Electronic coagulometer (Germany). The operating principle of this instrument is based on the fact that the formed blood clot breaks the contacts of the pulse counter in the flask-pin circuit, said pin permanently oscillating in a vertical plane. The moment of formation of the clot is registered by stopping the stop watch hand.
The measurements were effected at a constant temperature of 37° C. maintained by a temperature control unit.
The “thrombin time” characterizes the rate of transformation of fibrinogen into fibrin. It was determined by measuring the coagulation time of plasma deprived of thrombocytes under the effect of thrombin standardized by the control plasma.
0.2 ml of a thrombin solution was added to 0.2 ml of the test blood plasma of experimental animals, from whom the blood was taken 15, 30, 60 and 120 minutes after the intravenous administration of compounds 2, 15, 21, 37 according to the invention in doses of 15, 30, 60 mg/kg incubated for 1 minute at a temperature of 37° C. and the time of formation of clot T2 in seconds in a coagulometer of the Behnk Electronic Company (Germany).

thymus = experiment: Morphine abstinence model: thymus condition; format: in vivo, rats; conditions: morphinized rats then compound
Protocol: The effect of the compounds according to the invention on the condition of the thymus of the rats was also investigated: a control group, an experimental group of morphinized animals and an experimental group of animals were first morphinized and then injected with the compounds according to the invention. The experiment was carried out similarly to that described above.

| SMILES | number of electrons participating in the reduction [1] | i, mkA (polarographic wave current) ([1]; pH 7.0) | −E1/2, V (half-wave potential vs SCE) ([1]; pH 7.0) | i, mkA (polarographic wave current) ([1]; pH 7.2) | i, mkA (polarographic wave current) ([1]; pH 7.4) | −E1/2, V (half-wave potential vs SCE) ([1]; pH 7.4) | i, mkA (polarographic wave current) ([1]; pH 7.6) | −E1/2, V (half-wave potential vs SCE) ([1]; pH 7.6) | T2, s After 120 minutes (thrombin time) (plasma hemostasis; dose 15.0 mg/kg intravenously) | T2, s after 15 minutes (thrombin time) (plasma hemostasis; dose 15.0 mg/kg intravenously) | T2, s after 30 minutes (thrombin time) (plasma hemostasis; dose 15.0 mg/kg intravenously) | T2, s after 60 minutes (thrombin time) (plasma hemostasis; dose 15.0 mg/kg intravenously) | T2, s After 120 minutes (thrombin time) (plasma hemostasis; dose 30.0 mg/kg intravenously) | T2, s after 15 minutes (thrombin time) (plasma hemostasis; dose 30.0 mg/kg intravenously) | T2, s after 30 minutes (thrombin time) (plasma hemostasis; dose 30.0 mg/kg intravenously) | T2, s after 60 minutes (thrombin time) (plasma hemostasis; dose 30.0 mg/kg intravenously) | T2, s After 120 minutes (thrombin time) (plasma hemostasis; dose 60.0 mg/kg intravenously) | T2, s after 15 minutes (thrombin time) (plasma hemostasis; dose 60.0 mg/kg intravenously) | T2, s after 30 minutes (thrombin time) (plasma hemostasis; dose 60.0 mg/kg intravenously) | T2, s after 60 minutes (thrombin time) (plasma hemostasis; dose 60.0 mg/kg intravenously) | other results |
| --- | --- | --- | --- | --- | --- | --- | --- | --- | --- | --- | --- | --- | --- | --- | --- | --- | --- | --- | --- | --- | --- |
| Nc1ncc2c(=O)[nH][nH]c(=O)c2n1 [Compound 36, 2-amino-pyrimido[4,5-d]-6H-pyridazine-5,8-dione] | 3.5 | 0.30 ± 0.05 mkA | 0.08 ± 0.02 V | 0.26 ± 0.02 mkA | 0.30 ± 0.03 mkA | 0.085 ± 0.02 V | 0.30 ± 0.02 mkA | 0.09 ± 0.02 V | – | – | – | – | – | – | – | – | – | – | – | – | – |
| Nc1ccnc2c(=O)n([C@@H]3O[C@H](CO)[C@@H](O)[C@H]3O)[nH]c(=O)c12 [Compound 2, 4-amino-7-(β-D-ribofuranosile)pyrido[2,3-d]-6H-pyridazine-5,8-dione] | – | – | – | – | – | – | – | – | 15.3* s | 16.2* s | 17.0* s | 16.0* s | 15.3* s | 17.8* s | 18.4* s | 19.2* s | 15.3* s | 16.0* s | 16.9* s | 15.9* s | – |
| Nc1cnc2c(=O)n([C@@H]3O[C@H](CO)[C@@H](O)[C@H]3O)[nH]c(=O)c2n1.[Na] [Compound 21, sodium salt of 3-amino-7-(β-D-ribofuranosile)pyrazine[2,3-d]-6H-pyridazine-5,8-dione] | – | – | – | – | – | – | – | – | 15.7* s | 16.4* s | 17.7* s | 16.1* s | 15.6* s | 17.9* s | 18.8* s | 19.0* s | 15.7* s | 16.2* s | 17.7* s | 16.3* s | – |
| O=c1[nH][nH]c(=O)c2c(Br)ncnc12.[K] [Compound 37, potassium salt of 4-bromine-pyrimido[4,5-D]-6H-pyridazine-5,8-dione] | – | – | – | – | – | – | – | – | 15.6* s | 16.9* s | 18.2* s | 16.3* s | 15.2* s | 19.5* s | 20.3* s | 21.0* s | 15.0* s | 16.6* s | 17.8* s | 16.2* s | Nitrites, thymus Supernatant, Administration of morphine and compound (thymus): 0.387 ± 0.01 nmol/mg of protein; Thymus mass, Administration of morphine and compound (thymus): 228 ± 15 mg |
| Nc1cccc2c(=O)[nH][nH]c(=O)c12.[Na] [Compound 15, sodium salt of 5-amino-benzo[d]-3H-pyridazine-1,4-dione] | 4.09 | 0.23 ± 0.03 mkA | 0.092 ± 0.02 V | 0.30 ± 0.01 mkA | 0.29 ± 0.02 mkA | 0.092 ± 0.02 V | 0.31 ± 0.02 mkA | 0.09 ± 0.01 V | 15.5* s | 17.0* s | 18.5* s | 16.5* s | 15.0* s | 19.7* s | 20.5* s | 21.3* s | 14.7* s | 16.8* s | 18.0* s | 16.5* s | −E1/2, V (half-wave potential vs SCE) ([1]; pH 7.2): 0.09 ± 0.01 V; half-wave potential more positive on reverse stroke than on forward stroke [1]: 30.0 mV; Nitrites, thymus Supernatant, Administration of morphine and compound (thymus): 0.383 ± 0.02 nmol/mg of protein; Thymus mass, Administration of morphine and compound (thymus): 214 ± 12 mg |
| O=c1[nH]n([C@@H]2O[C@H](CO)[C@@H](O)[C@H]2O)c(=O)c2nc(O)cnc12.[Na].[Na] [Compound 23, disodium salt of 2-hydroxy-7-(β-D-ribofuranosile)pyrazine[2,3-Cl]-6H-pyridazine-5,8-dione] | 3.72 | 0.32 ± 0.03 mkA | 0.16 ± 0.02 V | 0.33 ± 0.04 mkA | 0.34 ± 0.03 mkA | 0.175 ± 0.01 V | 0.34 ± 0.02 mkA | 0.16 ± 0.015 V | – | – | – | – | – | – | – | – | – | – | – | – | −E1/2, V (half-wave potential vs SCE) ([1]; pH 7.2): 0.19 ± 0.02 V; half-wave potential more positive on reverse stroke than on forward stroke [1]: 20.0 mV |
| O=c1[nH][nH]c(=O)c2nccnc12.[Li] [Compound 25, lithium salt of pyrazine[2,3-d]-6H-pyridazine-5,8-dione] | 3.72 | 0.32 ± 0.03 mkA | 0.16 ± 0.02 V | 0.33 ± 0.04 mkA | 0.34 ± 0.03 mkA | 0.175 ± 0.01 V | 0.34 ± 0.02 mkA | 0.16 ± 0.015 V | – | – | – | – | – | – | – | – | – | – | – | – | −E1/2, V (half-wave potential vs SCE) ([1]; pH 7.2): 0.19 ± 0.02 V; half-wave potential more positive on reverse stroke than on forward stroke [1]: 20.0 mV; Nitrites, thymus Supernatant, Administration of morphine and compound (thymus): 0.396 ± 0.02 nmol/mg of protein; Thymus mass, Administration of morphine and compound (thymus): 218 ± 17 mg |
